From patent US20070074967A1, “Photodegradable protective group” (The University of Tokyo, priority 2005, published 2007) come the findings set out here.

SMILES strings stand for the structures.

This series in a line: Photodeprotection by irradiation with light of 470 nm (absorption spectra, fluorescence). Type of series: physicochemical. To be noted: for Change of absorption peaks around 450 nm with the light irradiation / Change of absorption peaks around 490 nm with the light irradiation (release of 6-hydroxy-9-o-toluylxanthen-3-one by deprotection): 3 μM in 0.1 M sodium phosphate buffer (pH 7.4), 10% N,N-dimethylformamide, light of 470 nm, argon laser, FIG. 1. The protocol:
3,5-DNB-2-Me TG obtained in Example 1 and o-NB-2-Me TG obtained in Example 2 were each dissolved in 0.1 M sodium phosphate buffer (pH 7.4) at a concentration of 3 μM. As a cosolvent, 10% N,N-dimethylformamide was added.
Light of 470 nm was irradiated by using an argon laser. One cycle consisted of 128 pulses×10 times.
It can be understood that the peaks around 450 nm observed for 3,5-DNB-2-Me TG and o-NB-2-Me TG were lowered, and the peaks around 490 nm were highered with the light irradiation. This is because 6-hydroxy-9-o-toluylxanthen-3-one was released from the compounds by deprotection.

As for `Cc1ccccc1-c1c2ccc(=O)cc-2oc2cc(OCc3ccccc3[N+](=O)[O-])ccc12` [o-NB-2-Me TG, 6-(2-nitrobenzyloxy)-9-o-toluylxanthen-3-one], the “Change of absorption peaks around 450 nm with the light irradiation” value is given as “lowered” and the “Change of absorption peaks around 490 nm with the light irradiation (release of 6-hydroxy-9-o-toluylxanthen-3-one by deprotection)” value is “highered”.
As to `Cc1ccccc1-c1c2ccc(=O)cc-2oc2cc(OCc3cc([N+](=O)[O-])cc([N+](=O)[O-])c3)ccc12` [3,5-DNB-2-Me TG, 6-(3,5-dinitrobenzyloxy)-9-o-toluylxanthen-3-one], the “Change of absorption peaks around 450 nm with the light irradiation” value is on record as “lowered” and the “Change of absorption peaks around 490 nm with the light irradiation (release of 6-hydroxy-9-o-toluylxanthen-3-one by deprotection)” value is on record as “highered”. Also, where the note is “irradiated with light of 470 nm, FIG. 2”, the “Fluorescence provided by released 6-hydroxy-9-o-toluylxanthen-3-one on irradiation” value is “increase of fluorescence”.
